Data from ChEMBL document CHEMBL2046378, “Investigation of chalcones as selective inhibitors of the breast cancer resistance protein: critical role of methoxylation in both inhibition potency and cytotoxicity” (J Med Chem, 2012).

Experiments:
[1] = target: T1, ABCG2 (Homo sapiens, UniProt Q9UNQ0); assay: Inhibition of ABCG2-mediated mitoxantrone efflux expressed in HEK293 cells at 2 uM after 48 hrs by flow cytometric analysis; assay type: cell-based; conditions: HEK293 cells expressing ABCG2, probe mitoxantrone
T1 sequence (Q9UNQ0 whole entry): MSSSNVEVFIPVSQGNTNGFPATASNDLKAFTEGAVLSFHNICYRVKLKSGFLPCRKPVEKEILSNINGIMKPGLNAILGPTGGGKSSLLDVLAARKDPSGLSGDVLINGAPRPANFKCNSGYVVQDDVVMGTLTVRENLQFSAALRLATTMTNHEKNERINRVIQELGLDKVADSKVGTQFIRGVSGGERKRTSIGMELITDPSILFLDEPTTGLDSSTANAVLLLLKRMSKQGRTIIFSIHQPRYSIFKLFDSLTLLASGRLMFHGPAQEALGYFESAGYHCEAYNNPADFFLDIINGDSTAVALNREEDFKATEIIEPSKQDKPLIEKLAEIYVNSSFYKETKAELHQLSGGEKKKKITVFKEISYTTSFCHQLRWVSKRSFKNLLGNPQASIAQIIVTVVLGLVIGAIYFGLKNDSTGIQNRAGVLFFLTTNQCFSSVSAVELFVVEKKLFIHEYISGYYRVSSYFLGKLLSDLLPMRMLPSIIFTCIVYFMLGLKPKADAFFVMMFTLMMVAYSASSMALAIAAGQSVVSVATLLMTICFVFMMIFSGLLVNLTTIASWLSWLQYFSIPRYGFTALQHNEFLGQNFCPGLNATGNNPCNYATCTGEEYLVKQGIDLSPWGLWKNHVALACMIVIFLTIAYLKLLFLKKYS

[2] = target: T1, ABCG2; assay: Inhibition of ABCG2-mediated mitoxantrone efflux expressed in HEK293 cells at 10 uM after 48 hrs by flow cytometric analysis; assay type: cell-based; conditions: HEK293 cells expressing ABCG2, probe mitoxantrone
[3] = Cytotoxicity against human HEK293 cells transfected with ABCG2 after 72 hrs by MTT assay; assay type: ADME, cell-based; conditions: read-out: IG50
[4] = target: Multidrug resistance-associated protein 1 (Homo sapiens, UniProt P33527); assay: Inhibition of ABCC1-mediated calcein transport expressed in human HEK293 cells at 10 uM after 48 hrs by flow cytometric analysis; assay type: cell-based; conditions: hek293, 48 h
Chain of Multidrug resistance-associated protein 1 (P33527 whole entry): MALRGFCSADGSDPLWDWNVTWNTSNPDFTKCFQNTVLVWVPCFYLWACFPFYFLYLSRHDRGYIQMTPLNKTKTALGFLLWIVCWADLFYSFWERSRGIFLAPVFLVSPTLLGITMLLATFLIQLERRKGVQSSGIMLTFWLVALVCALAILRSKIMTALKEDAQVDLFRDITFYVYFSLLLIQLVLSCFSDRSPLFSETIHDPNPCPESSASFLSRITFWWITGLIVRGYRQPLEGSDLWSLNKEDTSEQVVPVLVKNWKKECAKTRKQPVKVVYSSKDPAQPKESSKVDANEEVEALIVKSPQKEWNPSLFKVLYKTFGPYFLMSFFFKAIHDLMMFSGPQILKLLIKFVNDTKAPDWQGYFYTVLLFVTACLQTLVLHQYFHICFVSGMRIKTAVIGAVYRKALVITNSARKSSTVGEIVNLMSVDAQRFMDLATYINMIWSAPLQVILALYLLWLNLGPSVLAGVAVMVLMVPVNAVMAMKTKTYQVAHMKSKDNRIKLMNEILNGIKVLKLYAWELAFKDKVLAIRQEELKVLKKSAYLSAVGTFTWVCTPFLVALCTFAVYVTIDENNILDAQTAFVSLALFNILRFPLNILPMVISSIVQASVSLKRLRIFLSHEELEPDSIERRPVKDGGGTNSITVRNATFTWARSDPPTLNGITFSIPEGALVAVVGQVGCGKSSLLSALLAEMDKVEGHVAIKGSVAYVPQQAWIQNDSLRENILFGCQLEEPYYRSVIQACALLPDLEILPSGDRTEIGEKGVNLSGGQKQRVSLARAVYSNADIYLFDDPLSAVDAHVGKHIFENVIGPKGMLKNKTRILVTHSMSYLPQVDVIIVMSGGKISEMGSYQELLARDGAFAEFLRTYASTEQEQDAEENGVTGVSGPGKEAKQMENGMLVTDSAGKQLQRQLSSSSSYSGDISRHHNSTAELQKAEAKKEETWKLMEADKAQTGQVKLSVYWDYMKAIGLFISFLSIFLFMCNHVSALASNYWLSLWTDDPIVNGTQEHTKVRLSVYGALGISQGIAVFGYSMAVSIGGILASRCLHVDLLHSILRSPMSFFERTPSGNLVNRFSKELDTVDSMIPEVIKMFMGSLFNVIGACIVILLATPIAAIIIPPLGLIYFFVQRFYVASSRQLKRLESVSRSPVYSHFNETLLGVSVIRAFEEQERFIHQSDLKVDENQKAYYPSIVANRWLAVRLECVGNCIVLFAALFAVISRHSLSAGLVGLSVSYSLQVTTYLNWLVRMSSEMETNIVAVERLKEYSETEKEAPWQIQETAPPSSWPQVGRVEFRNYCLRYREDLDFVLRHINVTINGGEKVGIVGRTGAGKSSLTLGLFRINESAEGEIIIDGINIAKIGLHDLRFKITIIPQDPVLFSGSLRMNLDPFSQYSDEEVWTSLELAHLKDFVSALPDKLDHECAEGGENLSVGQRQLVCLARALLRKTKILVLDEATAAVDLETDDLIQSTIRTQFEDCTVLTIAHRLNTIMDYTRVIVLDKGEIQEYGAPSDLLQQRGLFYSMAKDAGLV

[5] = tested on: HEK293; assay: Cytotoxicity against human HEK293 cells transfected with ABCG2 up to 100 uM after 72 hrs by MTT assay; assay type: ADME, cell-based; conditions: hek293, 72 h
[6] = tested on: ABCG2; assay: Therapeutic index, ratio of IG50 for HEK293 cells to IC50 for ABCG2; assay type: cell-based; conditions: human, read-out: TI
[7] = target: T2, Broad substrate specificity ATP-binding cassette transporter ABCG2 (Homo sapiens, UniProt Q9UNQ0); assay: Inhibition of ABCG2-mediated mitoxantrone efflux expressed in HEK293 cells after 48 hrs by flow cytometric analysis; assay type: cell-based
T2 sequence (Q9UNQ0 whole entry): T1 sequence (Q9UNQ0 whole entry)

[8] = target: ATP-dependent translocase ABCB1 (Homo sapiens, UniProt P08183); assay: Inhibition of ABCB1-mediated mitoxantrone efflux expressed in HEK293 cells at 10 uM after 48 hrs by flow cytometric analysis; assay type: cell-based; conditions: hek293, 48 h
Chain of ATP-dependent translocase ABCB1 (P08183 whole entry): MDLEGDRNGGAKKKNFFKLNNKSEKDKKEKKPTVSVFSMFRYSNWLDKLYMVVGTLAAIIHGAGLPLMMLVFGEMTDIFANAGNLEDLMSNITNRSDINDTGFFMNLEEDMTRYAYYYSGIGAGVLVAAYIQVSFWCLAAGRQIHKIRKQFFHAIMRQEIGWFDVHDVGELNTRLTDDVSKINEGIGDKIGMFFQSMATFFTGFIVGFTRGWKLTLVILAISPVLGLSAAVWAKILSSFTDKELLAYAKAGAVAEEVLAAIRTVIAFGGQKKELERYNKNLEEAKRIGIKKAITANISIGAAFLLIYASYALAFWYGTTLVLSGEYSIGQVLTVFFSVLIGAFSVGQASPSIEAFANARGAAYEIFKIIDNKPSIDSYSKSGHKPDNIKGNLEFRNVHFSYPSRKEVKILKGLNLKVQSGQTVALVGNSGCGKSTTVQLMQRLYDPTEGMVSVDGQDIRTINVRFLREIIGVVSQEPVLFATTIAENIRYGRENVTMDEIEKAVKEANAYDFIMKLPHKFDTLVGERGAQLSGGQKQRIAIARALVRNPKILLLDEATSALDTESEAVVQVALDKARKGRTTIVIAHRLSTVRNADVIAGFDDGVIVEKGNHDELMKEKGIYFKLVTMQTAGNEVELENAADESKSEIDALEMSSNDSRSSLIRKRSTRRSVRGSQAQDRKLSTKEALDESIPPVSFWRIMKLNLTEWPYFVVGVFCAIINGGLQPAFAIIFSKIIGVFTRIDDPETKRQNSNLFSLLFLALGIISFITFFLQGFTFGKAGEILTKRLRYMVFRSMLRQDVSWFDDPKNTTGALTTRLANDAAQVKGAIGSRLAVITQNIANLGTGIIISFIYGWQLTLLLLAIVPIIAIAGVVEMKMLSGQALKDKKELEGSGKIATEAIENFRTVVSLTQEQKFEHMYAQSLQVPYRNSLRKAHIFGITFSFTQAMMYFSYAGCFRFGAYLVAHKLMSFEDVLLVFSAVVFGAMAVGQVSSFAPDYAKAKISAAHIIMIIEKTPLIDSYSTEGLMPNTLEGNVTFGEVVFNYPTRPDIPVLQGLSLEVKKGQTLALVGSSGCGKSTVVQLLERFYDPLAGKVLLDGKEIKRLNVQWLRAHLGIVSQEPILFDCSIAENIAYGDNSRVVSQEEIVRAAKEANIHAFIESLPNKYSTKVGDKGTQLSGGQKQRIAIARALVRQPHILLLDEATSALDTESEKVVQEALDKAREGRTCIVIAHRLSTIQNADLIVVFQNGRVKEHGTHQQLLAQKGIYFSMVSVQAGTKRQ

[9] = target: T1, ABCG2; assay: Inhibition of ABCG2-mediated mitoxantrone efflux expressed in HEK293 cells at 5 uM after 48 hrs by flow cytometric analysis; assay type: cell-based; conditions: HEK293 cells expressing ABCG2, probe mitoxantrone

`COc1ccc(C(=O)/C=C/c2cn(C)c3ccccc23)cc1` showed an inhibition at 48 h, 2 µM [1] of 55.5% and an inhibition at 48 h, 10 µM [2] of 89%.
`COc1ccc(/C=C/C(=O)c2cn(C)c3ccccc23)c(OC)c1` gave an inhibition at 48 h, 2 µM [1] of 83.8% and an inhibition at 48 h, 10 µM [2] of 108%.
With `COc1cccc(OC)c1/C=C/C(=O)c1cn(C)c2ccccc12` the inhibition at 48 h, 2 µM [1] was 104%, the GI50 at 72 h [3] was 50 µM and the “inhibition (INH)” value [4] was “Not Active”. For the same compound, the Activity [5] was “Non-toxic”, the selectivity ratio [6] was 185 and the IC50 [7] was 0.27 µM. The “inhibition (INH)” value [8] was “Not Active” and the inhibition at 48 h, 10 µM [2] was 113%.
In the case of `COc1cc(OC)c(/C=C/C(=O)c2cn(C)c3ccccc23)c(OC)c1`, the inhibition at 48 h, 2 µM [1] is reported as 93.8%, the GI50 at 72 h [3] is reported as 4 µM and the “inhibition (INH)” value [4] is reported as “Not Active”. The Activity [5] was “Non-toxic”, the selectivity ratio [6] was 9 and the IC50 [7] was 0.45 µM. For the same compound, the “inhibition (INH)” value [8] was “Not Active” and the inhibition at 48 h, 10 µM [2] was 109%.
With `COc1cc(/C=C/C(=O)c2cn(C)c3ccccc23)cc(OC)c1OC` the inhibition at 48 h, 2 µM [1] was 49.3% and the inhibition at 48 h, 10 µM [2] was 70%.
For `COc1cc(OC)c(/C=C/C(=O)c2cn(C)c3ccc(OC)cc23)c(OC)c1`, the inhibition at 48 h, 2 µM [1] was 89.1%, the GI50 at 72 h [3] was 1 µM and the “inhibition (INH)” value [4] was “Not Active”. For the same compound, the Activity [5] was “Non-toxic”, the selectivity ratio [6] was 3 and the IC50 [7] was 0.35 µM. The “inhibition (INH)” value [8] was “Not Active” and the inhibition at 48 h, 10 µM [2] was 111%.
Compound `Cn1cc(/C=C/C(=O)c2cn(C)c3ccccc23)c2ccccc21` has an inhibition at 48 h, 2 µM [1] of 52.1% and an inhibition at 48 h, 10 µM [2] of 98.8%.
With `COc1ccc(C(=O)/C=C/c2cn(C)c3ccccc23)c(OC)c1` the inhibition at 48 h, 2 µM [1] was 88.2% and the inhibition at 48 h, 10 µM [2] was 125%.
For `COc1cc(OC)c(C(=O)/C=C/c2cn(C)c3ccccc23)c(OC)c1`, the inhibition at 48 h, 2 µM [1] was 3.7% and the inhibition at 48 h, 10 µM [2] was 30%.
`COc1cccc(OC)c1C(=O)/C=C/c1cn(C)c2ccccc12` showed an inhibition at 48 h, 2 µM [1] of 2.9% and an inhibition at 48 h, 10 µM [2] of 17.4%.
In the case of `COc1cc(O)c(C(=O)/C=C/c2c(OC)cccc2OC)c(OC)c1`, the GI50 at 72 h [3] is reported as 50 µM, the “inhibition (INH)” value [4] is reported as “Not Active” and the Activity [5] is reported as “Non-toxic”. The IC50 [7] was 0.35 µM and the “inhibition (INH)” value [8] was “Not Active”.
`COc1ccc(C(=O)/C=C/c2ccc(OC)c(OC)c2)c(O)c1` showed an inhibition at 48 h, 2 µM [1] of 71.1% and an inhibition at 48 h, 10 µM [2] of 76.5%.
Work on `COc1cc2c(cc1OC)CN(CCc1ccc(NC(=O)c3cccc4c(=O)c5cccc(OC)c5[nH]c34)cc1)CC2` yielded an inhibition at 48 h, 5 µM [9] of 100%.
With `COc1cc(/C=C/C(=O)c2c(O)cc(OC)cc2OC)cc(OC)c1` the GI50 at 72 h [3] was 6 µM, the “inhibition (INH)” value [4] was “Not Active” and the Activity [5] was “Non-toxic”. The IC50 [7] was 0.17 µM and the “inhibition (INH)” value [8] was “Not Active”.
In the case of `COc1cccc(/C=C/C(=O)c2c(O)cc(OC)cc2OC)c1`, the GI50 at 72 h [3] is reported as 10 µM, the “inhibition (INH)” value [4] is reported as “Not Active” and the Activity [5] is reported as “Non-toxic”. The IC50 [7] was 0.26 µM and the “inhibition (INH)” value [8] was “Not Active”.
